Measured values: doi:10.1101/151233v4 (biorxiv, 2018)

Biological target: T1, truncated chicken MR (GAL4-DBD-MR-LBD) (Gallus gallus, UniProt C1KB84)
T1 sequence (C1KB84 729-986): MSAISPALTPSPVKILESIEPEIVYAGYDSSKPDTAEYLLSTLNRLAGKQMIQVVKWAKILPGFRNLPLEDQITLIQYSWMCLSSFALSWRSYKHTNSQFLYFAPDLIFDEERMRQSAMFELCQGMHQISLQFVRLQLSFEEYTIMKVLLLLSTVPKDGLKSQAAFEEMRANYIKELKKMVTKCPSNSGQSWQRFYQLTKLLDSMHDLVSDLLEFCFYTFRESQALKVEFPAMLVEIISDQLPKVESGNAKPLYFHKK
Assay: luciferase reporter transactivation in HEK293, GAL4-DBD fusion
Format: cell-based

EC50	SMILES
0.13 nM	C[C@]12CCC(=O)C=C1CC[C@@H]1[C@@H]2[C@@H](O)C[C@]2(C=O)[C@@H](C(=O)CO)CC[C@@H]12 [aldosterone]
0.69 nM	C[C@]12CCC(=O)C=C1CC[C@@H]1[C@@H]2[C@@H](O)C[C@@]2(C)[C@H]1CC[C@]2(O)C(=O)CO [cortisol]
